In ChEMBL document CHEMBL4422644, “Synthesis and evaluation of α-aminoacyl amides as antitubercular agents effective on drug resistant tuberculosis” (Eur J Med Chem, 2019):
Converted amounts (≈) assume the structure as drawn.

Assays:
[1] = test system: Mycobacterium tuberculosis; experiment: Antitubercular activity against Mycobacterium tuberculosis H37Rv after 7 days by alamar blue assay; type: functional; settings: 168 h
CHO-K1 = experiment: Cytotoxicity against CHOK1 cells after 24 hrs by MTT assay; type: cell-based; settings: Cricetulus griseus, CHO-K1, 24 h
[2] = Selectivity index, ratio of IC50 for CHOK1 cells to MIC for Mycobacterium tuberculosis H37Rv; type: toxicity; settings: hamster, read-out: Selectivity Index
A549 = experiment: Cytotoxicity against human A549 cells after 24 hrs by MTT assay; type: functional, cell-based; settings: A549, 24 h
DU-145 = experiment: Cytotoxicity against human DU145 cells after 24 hrs by MTT assay; type: functional, cell-based; settings: DU-145, 24 h
HeLa = experiment: Cytotoxicity against human HeLa cells after 24 hrs by MTT assay; type: functional, cell-based
HepG2 = experiment: Cytotoxicity against human HepG2 cells after 24 hrs by MTT assay; type: functional, cell-based; settings: HepG2, 24 h
MCF7 = experiment: Cytotoxicity against human MCF7 cells after 24 hrs by MTT assay; type: functional, cell-based; settings: MCF7, 24 h
[3] = Cytotoxicity against […] B16 cells after 24 hrs by MTT assay; type: functional, cell-based; settings: B16, 24 h
[4] = Cytotoxicity against HEK cells after 24 hrs by MTT assay; type: cell-based; settings: Homo sapiens, HEK293, 24 h
Escherichia coli = experiment: Antibacterial activity against Escherichia coli ATCC 25922 after 24 hrs; type: functional; settings: ATCC 25922, 24 h
Staphylococcus aureus = experiment: Antibacterial activity against Staphylococcus aureus ATCC 29213 after 24 hrs; type: functional; settings: ATCC 29213, 24 h
Pseudomonas aeruginosa = experiment: Antibacterial activity against Pseudomonas aeruginosa ATCC 27853 after 24 hrs; type: functional; settings: ATCC 27853, 24 h
Klebsiella pneumoniae = experiment: Antibacterial activity against Klebsiella pneumoniae ATCC BAA-1705 after 24 hrs; type: functional; settings: ATCC BAA-1705, 24 h
Acinetobacter baumannii = experiment: Antibacterial activity against Acinetobacter baumannii ATCC BAA-1605 after 24 hrs; type: functional; settings: ATCC BAA-1605, 24 h
[5] = test system: Mycolicibacterium fortuitum; experiment: Antibacterial activity against Mycobacterium fortuitum after 7 days by alamar blue assay; type: functional; settings: 168 h
Mycobacteroides chelonae = experiment: Antibacterial activity against Mycobacterium chelonae after 7 days by alamar blue assay; type: functional; settings: 168 h
[6] = test system: Mycobacteroides abscessus; experiment: Antibacterial activity against Mycobacterium abscessus after 7 days by alamar blue assay; type: functional; settings: 168 h

Row | Compound | MIC [1] [µM] | MIC (Escherichia coli) [µM] | MIC (Staphylococcus aureus) [µM] | MIC (Pseudomonas aeruginosa) [µM] | MIC (Klebsiella pneumoniae) [µM] | MIC (Acinetobacter baumannii) [µM] | MIC [5] [µM] | MIC (Mycobacteroides chelonae) [µM] | MIC [6] [µM] | also measured
1 | Cc1cccc(N(C(=O)c2c(C)noc2C)C(C(=O)NC2CCCCC2)c2cccnc2)c1C (stereo not given) | 6.25 (≈ 2.88 µg/mL) | > 50 | > 50 | > 50 | > 50 | > 50 | > 50 | > 50 | > 50 | IC50 (CHO-K1): 137 µM; selectivity ratio [2]: 21.7; IC50 (A549): 12.8 µM; IC50 (DU-145): 12 µM; IC50 (HeLa): 14.1 µM; IC50 (HepG2): 11.8 µM; IC50 (MCF7): 6.62 µM; IC50 [3]: 32.7 µM; IC50 [4]: 76.9 µM
2 | Cc1cccc(N(C(=O)c2ccncc2)C(C(=O)NC2CCCCC2)c2ccncc2)c1C (stereo not given) | 25 (≈ 11.1 µg/mL) | > 50 | > 50 | > 50 | > 50 | > 50 | > 50 | > 50 | > 50 | –
3 | Cc1cccc(C)c1N(C(=O)c1ccc[nH]1)C(C(=O)NC1CCCCC1)c1ccccc1 (stereo not given) | 25 (≈ 10.7 µg/mL) | > 50 | > 50 | > 50 | > 50 | > 50 | > 50 | > 50 | > 50 | –
4 | Cc1ccc(N(C(=O)c2sc(C)nc2C)C(C(=O)NC(C)(C)C)c2ccccc2)c(C)c1 (stereo not given) | > 100 | – | – | – | – | – | – | – | – | –
5 | Cc1ccc(N(C(=O)c2ccc[nH]2)C(C(=O)NC2CCCCC2)c2ccccc2)c(C)c1 (stereo not given) | 6.25 (≈ 2.68 µg/mL) | > 50 | > 50 | > 50 | > 50 | > 50 | > 50 | > 50 | > 50 | IC50 (CHO-K1): 68.2 µM; selectivity ratio [2]: 10.8; IC50 (A549): 15.5 µM; IC50 (DU-145): 9.3 µM; IC50 (HeLa): 10.9 µM; IC50 (HepG2): 13.5 µM; IC50 (MCF7): 15.5 µM; IC50 [3]: 32.5 µM; IC50 [4]: 33.2 µM
6 | Cc1ccc(N(C(=O)c2sc(C)nc2C)C(C(=O)NC2CCCCC2)c2ccc(C(F)(F)F)cc2)cc1 (stereo not given) | > 100 | – | – | – | – | – | – | – | – | –
7 | Cc1nc(C)c(C(=O)N(c2ccccc2O)C(C(=O)NC2CCCCC2)c2ccccc2)s1 (stereo not given) | 25 (≈ 11.6 µg/mL) | > 50 | > 50 | > 50 | > 50 | > 50 | > 50 | > 50 | > 50 | –
8 | Cc1nc(C)c(C(=O)N(c2c(C)cccc2C)C(C(=O)NC2CCCCC2)c2ccccc2)s1 (stereo not given) | 25 (≈ 11.9 µg/mL) | > 50 | > 50 | > 50 | > 50 | > 50 | > 50 | > 50 | > 50 | –
9 | C[C@H]1COc2c(N3CCN(C)CC3)c(F)cc3c(=O)c(C(=O)O)cn1c23 [LEVOFLOXACIN] | – | < 0.03 | 0.25 (≈ 0.0903 µg/mL) | 1 (≈ 0.361 µg/mL) | 64 (≈ 23.1 µg/mL) | 8 (≈ 2.89 µg/mL) | < 0.03 | 0.25 (≈ 0.0903 µg/mL) | 64 (≈ 23.1 µg/mL) | –
10 | Cc1ccc(C)c(N(C(=O)c2sc(C)nc2C)C(C(=O)NC2CCCCC2)c2ccccc2)c1 (stereo not given) | > 100 | – | – | – | – | – | – | – | – | –
11 | Cc1cccc(N(C(=O)c2ccco2)C(C(=O)NC2CCCCC2)c2ccccc2)c1C (stereo not given) | > 100 | – | – | – | – | – | – | – | – | –
12 | Cc1cccc(N(C(=O)c2c(C)noc2C)C(C(=O)NC2CCCCC2)c2ccncc2)c1C (stereo not given) | 25 (≈ 11.5 µg/mL) | > 50 | > 50 | > 50 | > 50 | > 50 | > 50 | > 50 | > 50 | –
13 | Cc1ccc(N(C(=O)c2ccc[nH]2)C(C(=O)NC2CCCCC2)c2ccccc2)cc1 (stereo not given) | 25 (≈ 10.4 µg/mL) | – | – | – | – | – | – | – | – | –
14 | Cc1nc(C)c(C(=O)N(c2ccc(C)c(C)c2)C(C(=O)NC2CCCCC2)c2ccccc2)s1 (stereo not given) | > 100 | – | – | – | – | – | – | – | – | –
15 | CCc1ccccc1N(C(=O)c1sc(C)nc1C)C(C(=O)NC1CCCCC1)c1ccccc1 (stereo not given) | 25 (≈ 11.9 µg/mL) | > 50 | > 50 | > 50 | > 50 | > 50 | > 50 | > 50 | > 50 | –
16 | Cc1ccc(N(C(=O)c2ccc[nH]2)C(C(=O)NC2CCCCC2)c2ccncc2)cc1 (stereo not given) | 25 (≈ 10.4 µg/mL) | > 50 | > 50 | > 50 | > 50 | > 50 | > 50 | > 50 | > 50 | –
17 | Cc1cccc(N(C(=O)c2ccc(Br)o2)C(C(=O)NC2CCCCC2)c2ccccc2)c1C (stereo not given) | > 100 | – | – | – | – | – | – | – | – | –
18 | Cc1nc(C)c(C(=O)N(c2cnc3ccccc3c2)C(C(=O)NC2CCCCC2)c2ccccc2)s1 (stereo not given) | > 100 | – | – | – | – | – | – | – | – | –

Row | Compound | MIC [1] [µM] | MIC (Escherichia coli) [µM] | MIC (Staphylococcus aureus) [µM] | MIC (Pseudomonas aeruginosa) [µM] | MIC (Klebsiella pneumoniae) [µM] | MIC (Acinetobacter baumannii) [µM] | MIC [5] [µM] | MIC (Mycobacteroides chelonae) [µM] | MIC [6] [µM] | also measured
19 | Cc1nc(C)c(C(=O)N(c2cccc(C)c2C)C(C(=O)NC(C)(C)C)c2ccccc2)s1 (stereo not given) | > 100 | – | – | – | – | – | – | – | – | –
20 | Cc1nc(C)c(C(=O)N(c2ccccc2)C(C(=O)NC2CCCCC2)c2cccc(C(F)(F)F)c2)s1 (stereo not given) | > 100 | – | – | – | – | – | – | – | – | –
21 | Cc1nc(C)c(C(=O)N(c2ccccc2)C(C(=O)NC2CCCCC2)c2ccc(C(F)(F)F)cc2)s1 (stereo not given) | > 100 | – | – | – | – | – | – | – | – | –
22 | COc1ccc(C(C(=O)NC2CCCCC2)N(C(=O)c2sc(C)nc2C)c2ccccc2)cc1 (stereo not given) | > 100 | – | – | – | – | – | – | – | – | –
23 | Cc1cccc(N(C(=O)c2ccnc(Cl)c2)C(C(=O)NC2CCCCC2)c2ccccc2)c1C (stereo not given) | > 100 | – | – | – | – | – | – | – | – | –
24 | COc1ccc(C(C(=O)NC2CCCCC2)N(C(=O)c2sc(C)nc2C)c2ccc(C)cc2)cc1 (stereo not given) | > 100 | – | – | – | – | – | – | – | – | –
25 | COc1cccc2c1C(=O)c1c(O)c3c(c(O)c1C2=O)C[C@@](O)(C(=O)CO)C[C@@H]3O[C@H]1C[C@H](N)[C@H](O)[C@H](C)O1 [DOXORUBICIN] | – | – | – | – | – | – | – | – | – | IC50 (A549): 0.55 µM; IC50 (DU-145): 0.363 µM; IC50 (HeLa): 0.8 µM; IC50 (HepG2): 0.72 µM; IC50 (MCF7): 2 µM; IC50 [3]: 0.7 µM; IC50 [4]: 0.01 µM
26 | Cc1ccc(N(C(=O)c2ccncc2)C(C(=O)NC2CCCCC2)c2cccnc2)cc1 (stereo not given) | 25 (≈ 10.7 µg/mL) | > 50 | > 50 | > 50 | > 50 | > 50 | > 50 | > 50 | > 50 | –
27 | Cc1ccc(N(C(=O)c2ccncc2)C(C(=O)NC2CCCCC2)c2ccncc2)cc1 (stereo not given) | 25 (≈ 10.7 µg/mL) | – | – | – | – | – | – | – | – | –
28 | Cc1ccc(N(C(=O)c2sc(C)nc2C)C(C(=O)NC(C)(C)C)c2ccccc2)cc1 (stereo not given) | > 100 | – | – | – | – | – | – | – | – | –
29 | Cc1ccc(N(C(=O)c2sc(C)nc2C)C(C(=O)NC2CCCCC2)c2cccc(C(F)(F)F)c2)cc1 (stereo not given) | 6.25 (≈ 3.31 µg/mL) | – | – | – | – | – | – | – | – | IC50 (CHO-K1): 42.7 µM; selectivity ratio [2]: 6.8; IC50 (A549): 13.9 µM; IC50 (DU-145): 11.8 µM; IC50 (HeLa): 16.4 µM; IC50 (HepG2): 8.14 µM; IC50 (MCF7): 5.7 µM; IC50 [3]: 11.6 µM; IC50 [4]: 59.8 µM
30 | Cc1ccc(N(C(=O)c2sc(C)nc2C)C(C(=O)NC2CCCCC2)c2ccccc2Cl)cc1 (stereo not given) | > 100 | – | – | – | – | – | – | – | – | –
31 | Cc1nc(C)c(C(=O)N(c2ccccc2)C(C(=O)NC2CCCCC2)c2cccc(Cl)c2)s1 (stereo not given) | > 100 | – | – | – | – | – | – | – | – | –
32 | Cc1cccc(N(C(=O)c2cnc3ccccc3c2)C(C(=O)NC2CCCCC2)c2ccccc2)c1C (stereo not given) | > 100 | – | – | – | – | – | – | – | – | –
33 | Cc1ccc(N(C(=O)c2sc(C)nc2C)C(C(=O)Nc2cccc3ccccc23)c2ccccc2)cc1 (stereo not given) | > 100 | – | – | – | – | – | – | – | – | –
34 | Cc1nc(C)c(C(=O)N(c2ccccc2)C(C(=O)NC2CCCCC2)c2ccccc2)s1 (stereo not given) | > 100 | – | – | – | – | – | – | – | – | –
35 | Cc1cc(C)cc(N(C(=O)c2sc(C)nc2C)C(C(=O)NC2CCCCC2)c2ccccc2)c1 (stereo not given) | > 100 | – | – | – | – | – | – | – | – | –
